The source of these data is patent US20250041175A1, “COMPOSITION FOR SMOOTHING THE SKIN AND/OR THE LIPS” (L V M H RECHERCHE, priority 2021, published 2025).

The data set can be described thus: Penetration of polyglycerols into the layers of the skin, 7T-MALDI-FT-ICR mass spectrometry imaging (MSI). The format is in vitro ADME. To be noted: sections of human skin, preliminary study.

Regarding polyglycerol-3, the “depth of penetration at the surface layers of the skin (epidermis and superficial dermis)” value (shortened to “depth of penetration”) is on record as “reaches the superficial dermis very quickly”; the “penetration speed of polyglycerols” value is listed as “penetrates rapidly”.

In the case of polyglycerol-4, the “depth of penetration” value was “stationed in the superficial dermis”; the “penetration speed of polyglycerols” value was “penetrates more quickly”.

With Polyglycerol-5, the “depth of penetration” value is given as “penetrate less deeply than polyglycerol-3 or polyglycerol-4”.
